For 17 compounds, IC50 results are on record in US20080200454A1, “CARBON-LINKED TETRAHYDRO-PYRAZOLO-PYRIDINE MODULATORS OF CATHEPSIN S” (priority 2007, published 2008).

The first test deals with Recombinant human cathepsin S (CatS) (Homo sapiens, UniProt P25774). Briefly: Recombinant human cathepsin S (CatS) inhibition assay, fluorogenic substrate Z-Valine-Valine-Arginine-AMC.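 Note: Baculovirus-expressed CatS in pH 5.0 sodium acetate buffer with DTT and NaCl, fluorescence read each minute over 20 min, inhibition derived from rate slope.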
Sequence of Recombinant human cathepsin S (CatS) (P25774 115-331): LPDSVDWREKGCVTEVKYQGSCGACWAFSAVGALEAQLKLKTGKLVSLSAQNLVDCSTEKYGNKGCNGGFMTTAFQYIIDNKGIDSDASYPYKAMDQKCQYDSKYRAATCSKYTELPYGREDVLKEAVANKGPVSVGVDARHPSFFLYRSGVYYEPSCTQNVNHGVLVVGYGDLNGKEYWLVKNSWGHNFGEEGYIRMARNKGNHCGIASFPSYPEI
Conditions: not given
For the compound `CS(=O)(=O)N1CCc2c(c(-c3ccc(Cl)c(C#Cc4ccc(CNC5CCCc6ccccc65)cc4)c3)nn2CCCN2CCN(c3ccccn3)CC2)C1` (stereo in doubt) [Example 215, (1R)—N-({4-[(2-Chloro-5-{5-(methylsulfonyl)-1-[3-(4-pyridin-2-ylpiperazin-1-yl)propyl]-4,5,6,7-tetrahydro-1H-pyrazolo[4,3-c]pyridin-3-yl}phenyl)ethynyl]phenyl}methyl)-1,2,3,4-tetrahydronaphthalen-1-amine], the IC50 was 30 nM. Same read-out and setting: with `COC(=O)CNCc1cc(C#Cc2cc(-c3nn(CCCN4CCOCC4C)c4c3CN(C(N)=O)CC4)ccc2Cl)ccc1Cl` (stereo in doubt) [Example 220, Methyl N-{[5-({5-[5-(aminocarbonyl)-1-{3-[(3S)-3-methylmorpholin-4-yl]propyl}-4,5,6,7-tetrahydro-1H-pyrazolo[4,3-c]pyridin-3-yl]-2-chlorophenyl}ethynyl)-2-chlorophenyl]methyl}glycinate] the figure was 30 nM; with `CC1COCCN1CCCn1nc(-c2ccc(Cl)c(C#Cc3ccc(Cl)c(CNCC(=O)O)c3)c2)c2c1CCN(C(N)=O)C2` (stereo in doubt) [Example 221, N-{[5-({5-[5-(Aminocarbonyl)-1-{3-[(3S)-3-methylmorpholin-4-yl]propyl}-4,5,6,7-tetrahydro-1H-pyrazolo[4,3-c]pyridin-3-yl]-2-chlorophenyl}ethynyl)-2-chlorophenyl]methyl}glycine], 20 nM; with `CC1COCCN1CCCn1nc(-c2ccc(Cl)c(C#Cc3ccc(Cl)c(CNCC4CCCO4)c3)c2)c2c1CCN(C(N)=O)C2` (stereo in doubt) [Example 223, 3-{4-Chloro-3-[(4-chloro-3-{[(tetrahydrofuran-2-ylmethyl)amino]methyl}phenyl)ethynyl]phenyl}-1-{3-[(3S)-3-methylmorpholin-4-yl]propyl}-1,4,6,7-tetrahydro-5H-pyrazolo[4,3-c]pyridine-5-carboxamide], 20 nM. `C[C@H]1COCCN1CC(O)Cn1nc(-c2ccc(Cl)c(C#Cc3ccc(CNCc4ccc(Cl)cc4)cc3)c2)c2c1CCN(C(N)=O)C2` (stereo in doubt) [Example 258, 3-(4-Chloro-3-{4-[(4-chloro-benzylamino)-methyl]-phenylethynyl}-phenyl)-1-[(2S)-2-hydroxy-3-((3S)-3-methyl-morpholin-4-yl)-propyl]-1,4,6,7-tetrahydro-pyrazolo[4,3-c]pyridine-5-carboxylic acid amide]: the 50% inhibitory concentration (IC50) is 80 nM.

Take `CC1COCCN1C[C@H](O)Cn1nc(-c2ccc(Cl)c(C#Cc3ccc(CNCc4ccc(Cl)cc4)cc3)c2)c2c1CCN(S(C)(=O)=O)C2` (stereo in doubt) [Example 266, (2S)-1-[3-(4-Chloro-3-{4-[(4-chloro-benzylamino)-methyl]-phenylethynyl}-phenyl)-5-methanesulfonyl-4,5,6,7-tetrahydro-pyrazolo[4,3-c]pyridin-1-yl]-3-((3S)-3-methyl-morpholin-4-yl)-propan-2-ol]: the half-maximal inhibitory concentration (IC50) was found to be 350 nM.

Consider `CS(=O)(=O)N1CCc2c(c(-c3ccc(Cl)c(C#Cc4ccc5[nH]ccc5c4)c3)nn2CCCN2CCOCC2)C1` [Example 1, 3-[4-Chloro-3-(1H-indol-5-ylethynyl)-phenyl]-5-methanesulfonyl-1-(3-morpholin-4-yl-propyl)-4,5,6,7-tetrahydro-1H-pyrazolo[4,3-c]pyridine], for which the IC50 was found to be 190 nM. The same measure, in the same setting: with `CS(=O)(=O)N1CCc2c(c(-c3ccc(Cl)c(CCc4ccc5[nH]ccc5c4)c3)nn2CCCN2CCOCC2)C1` [Example 2, 3-{4-Chloro-3-[2-(1H-indol-5-yl)-ethyl]-phenyl}-5-methanesulfonyl-1-(3-morpholin-4-yl-propyl)-4,5,6,7-tetrahydro-1H-pyrazolo[4,3-c]pyridine] the figure was 350 nM; with `CS(=O)(=O)N1CCc2c(c(-c3ccc(Cl)c(C#Cc4ccc(CC#N)cc4)c3)nn2CCCN2CCOCC2)C1` [Example 3, (4-{2-Chloro-5-[5-methanesulfonyl-1-(3-morpholin-4-yl-propyl)-4,5,6,7-tetrahydro-1H-pyrazolo[4,3-c]pyridin-3-yl]-phenylethynyl}-phenyl)-acetonitrile], 270 nM.

`CS(=O)(=O)N1CCc2c(c(-c3ccc(Cl)c(C#Cc4cccc(CC#N)c4)c3)nn2CCCN2CCOCC2)C1` [Example 4, (3-{2-Chloro-5-[5-methanesulfonyl-1-(3-morpholin-4-yl-propyl)-4,5,6,7-tetrahydro-1H-pyrazolo[4,3-c]pyridin-3-yl]-phenylethynyl}-phenyl)-acetonitrile]: the IC50 turned out to be 750 nM. On the same count and under the same terms, under `CS(=O)(=O)N1CCc2c(c(-c3ccc(Cl)c(C#Cc4ccc(CO)cc4)c3)nn2CCCN2CCOCC2)C1` [Example 5, (4-{2-Chloro-5-[5-methanesulfonyl-1-(3-morpholin-4-yl-propyl)-4,5,6,7-tetrahydro-1H-pyrazolo[4,3-c]pyridin-3-yl]-phenylethynyl}-phenyl)-methanol] stands 290 nM. The same measure, in the same setting: under `CS(=O)(=O)N1CCc2c(c(-c3ccc(Cl)c(C#Cc4cccc(CO)c4)c3)nn2CCCN2CCOCC2)C1` [Example 6, (3-{2-Chloro-5-[5-methanesulfonyl-1-(3-morpholin-4-yl-propyl)-4,5,6,7-tetrahydro-1H-pyrazolo[4,3-c]pyridin-3-yl]-phenylethynyl}-phenyl)-methanol] stands 950 nM; under `CS(=O)(=O)N1CCc2c(c(-c3ccc(Cl)c(C#Cc4ccc(O)cc4)c3)nn2CCCN2CCOCC2)C1` [Example 7, 4-{2-Chloro-5-[5-methanesulfonyl-1-(3-morpholin-4-yl-propyl)-4,5,6,7-tetrahydro-1H-pyrazolo[4,3-c]pyridin-3-yl]-phenylethynyl}-phenol], 250 nM. On the same count and under the same terms, under `CS(=O)(=O)N1CCc2c(c(-c3ccc(Cl)c(C#Cc4ccc(CCCC(=O)O)cc4)c3)nn2CCCN2CCOCC2)C1` [Example 8, 4-(4-{2-Chloro-5-[5-methanesulfonyl-1-(3-morpholin-4-yl-propyl)-4,5,6,7-tetrahydro-1H-pyrazolo[4,3-c]pyridin-3-yl]-phenylethynyl}-phenyl)-butyric acid] stands 190 nM. With `CS(=O)(=O)N1CCc2c(c(-c3ccc(Cl)c(C#Cc4ccc(CCC(=O)O)cc4)c3)nn2CCCN2CCOCC2)C1` [Example 9, 3-(4-{2-Chloro-5-[5-methanesulfonyl-1-(3-morpholin-4-yl-propyl)-4,5,6,7-tetrahydro-1H-pyrazolo[4,3-c]pyridin-3-yl]-phenylethynyl}-phenyl)-propionic acid], the IC50 is 160 nM. Same read-out and setting: with `COC(=O)Cc1ccc(C#Cc2cc(-c3nn(CCCN4CCOCC4)c4c3CN(S(C)(=O)=O)CC4)ccc2Cl)cc1` [Example 10, (4-{2-Chloro-5-[5-methanesulfonyl-1-(3-morpholin-4-yl-propyl)-4,5,6,7-tetrahydro-1H-pyrazolo[4,3-c]pyridin-3-yl]-phenylethynyl}-phenyl)-acetic acid methyl ester] the figure was 420 nM.

The same test, now with this note: CatS IC50.
Regarding `CC1COCCN1CCCn1nc(-c2ccc(Cl)c(C#Cc3ccc(Cl)c(CNCc4ccccc4)c3)c2)c2c1CCN(C(N)=O)C2` (stereo in doubt) [Example 224, 3-{4-Chloro-3-[(4-chloro-3-{[(phenylmethyl)amino]methyl}phenyl)ethynyl]phenyl}-1-{3-[(3S)-3-methylmorpholin-4-yl]propyl}-1,4,6,7-tetrahydro-5H-pyrazolo[4,3-c]pyridine-5-carboxamide], the IC50 is 20 nM.
